These are literature values, as cited in article PMC3048208 (British Journal of Cancer, 2011).

The term half-life denotes the time needed for the level to fall by half in the phase considered.

On the set-up of the series: method as in Kelly et al, 2005; Steele et al, 2008. The conditions noted are these: ref Kelly et al, 2005; Steele et al, 2008; cited from earlier work.

Turning to `O=C(CCCCCCC(=O)Nc1ccccc1)NO` [vorinostat, suberoylanilide hydroxamic acid], the half-life is 1 to 2 h.
For `O=C(/C=C/c1cccc(S(=O)(=O)Nc2ccccc2)c1)NO` [belinostat], the half-life was 1 to 2 h.
